For this test, the system named is Mycobacterium tuberculosis. The test is described as follows: Antimycobacterial activity against Mycobacterium tuberculosis H37Ra transformed with pSMT1 luciferase reporter plasmid incubated for 7 days by luminometric assay. The format is functional. Particulars: 168 h, time 7 day. (In a reporter assay the amount or activity of a reporter protein is the signal.)

These results are taken from ChEMBL document CHEMBL5329165, “Design, synthesis and biological evaluation of phenanthridine amide and 1,2,3-triazole analogues against Mycobacterium tuberculosis” (RSC Med Chem, 2023).

Converted amounts (≈) assume the structure as drawn.

For orientation: MIC means the lowest concentration found to suppress growth. A low value points to inhibition by little substance. On to `O=C(Nc1ccc(N2CCN(C(=O)c3cnccn3)CC2)nc1)c1ccccc1`, for which the MIC was determined as 1.46 µM (≈ 0.567 µg/mL).
